Results as given in patent publication US20240123022A1, “A STABLE ANTI-ANGIOGENIC AND ANTI-INFLAMMATORY PHARMACEUTICAL FORMULATION AND PHARMACEUTICAL COMBINATION FOR TREATMENT AND PREVENTION OF PSORIASIS” (priority 2021, published 2024).

Key:
[1] = test system: human keratinocytes (HaCaT) cells; assay: Annexin-V externalization (pro-apoptotic effect); assay type: cell-based; conditions: 48 h, vs control
Protocol: Pro-apoptotic effect of IS217 was evaluated in human keratinocytes (HaCaT) cells by using the Annexin-V externalization. In this study, cells were plated and incubated for about 24 hours by using dulbecco's modified eagle's medium (DMEM) with about 10% fetal bovine serum (FBS) and cells were sera starved using about 0.1% FBS for about 3 hours. HaCaT cells were treated with IS217 at about 0 hours and about 24 hours in concentration range of from about 100 μg/ml to about 5000 μg/ml and incubated for about 24 hours. Curcumin (1 μM-50 μM) was used as positive control. After about 48 hours of first treatment, cells were incubated with Annexin-V reagent and subsequently analyzed by flow cytometry (Guava technologies) for identification of cells population.

[2] = Stability of IS217 API, accelerated condition 5 ± 3° C.; assay type: physicochemical
Protocol: The purpose of stability testing is to provide evidence on how the quality of a drug substance or drug product varies with time under the influence of a variety of environmental factors such as temperature, humidity, etc. and to establish a re-test period for the drug substance or a shelf life for the drug product and recommended storage conditions. The study was conducted according to the WHO and Schedule-Y guidelines.
The drug substance is a lyophilized white fluffy powder, and it was filled at sterile condition in glass injection vial which has airlock-rubber capping. This container closure system is the same as or simulates the packaging proposed for storage and distribution.
This study has included testing of those attributes of the drug substance that are susceptible to change during storage and are likely to influence quality, safety and/or efficacy. The testing was covered, as appropriate, the physical and chemical attributes.
The following test attributes have been selected according to above said guidelines. • Appearance; odour; colour; colour of solution (when the drug substance is soluble in solvent); clarity of solution; degradation and assessment of container closure system
The studies were conducted under appropriate storage conditions (with appropriate tolerances) that test drug substance thermal stability and its sensitivity to moisture. The drug substance is intended to store for 24 months. Accordingly, long term stability studies were done for 24 months. The details of the storage conditions have been furnished hereunder.
Name of the product: IS217; Batch size: 200 m·mol; Storage conditions: 5±3° C.

HaCaT cells = assay: TUNEL assay; assay type: cell-based, human; conditions: for % increase in TUNEL-Positive cell population w.r.t. control (untreated cells): 48 h
Protocol: Terminal deoxynucleotidyl transferase (TdT) dUTP Nick-End Labeling (TUNEL) assay has been designed to detect apoptotic cells that undergo extensive DNA degradation during the late stages of apoptosis. […] Cells were treated with test item (IS217 of 100 μg/ml-5000 μg/ml) and positive controls like curcumin (10 μM and 20 μM), anthralin (1 μM) and betullininc acid (10 μg/ml, 20 μg/ml, 50 μg/ml). After about 48 hours of treatment, cells were analysed for the apoptotic effect via TUNEL assay. Absorbance was measured using ELISA reader (Table 1).

CYP3A4 = molecular target: T1, CYP3A4 (Homo sapiens, UniProt P08684); assay: in vitro; assay type: in vitro ADME
T1 construct: purchased
T1 sequence (P08684 whole entry): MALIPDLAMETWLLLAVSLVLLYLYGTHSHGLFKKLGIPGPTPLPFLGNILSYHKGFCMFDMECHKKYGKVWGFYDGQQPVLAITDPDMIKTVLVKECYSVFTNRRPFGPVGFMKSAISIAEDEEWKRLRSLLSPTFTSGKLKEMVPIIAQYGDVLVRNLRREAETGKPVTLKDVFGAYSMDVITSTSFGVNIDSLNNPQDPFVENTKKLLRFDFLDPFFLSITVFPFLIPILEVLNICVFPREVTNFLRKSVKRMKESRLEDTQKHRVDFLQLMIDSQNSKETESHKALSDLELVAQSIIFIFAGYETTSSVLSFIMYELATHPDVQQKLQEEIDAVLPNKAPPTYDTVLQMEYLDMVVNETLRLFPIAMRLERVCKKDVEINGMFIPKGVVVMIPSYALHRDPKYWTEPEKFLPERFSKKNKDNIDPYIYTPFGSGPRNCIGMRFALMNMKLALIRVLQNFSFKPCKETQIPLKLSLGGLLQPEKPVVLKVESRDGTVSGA
Protocol: (§1) The study design determined inhibition potential of test item (IS217) for CYP3A4, CYP1A2, CYP2C9, CYP2D6 and CYP2C19 using high throughput inhibitor screening kit. The experiment was performed with concentrations range of 10 μg/mL to 0.005 μg/mL of test compound IS217. Positive controls taken were specific to individual kit, which were taken as follows:
(§2) At the end of incubation period, metabolism of fluorescent substrates to their metabolites was read using fluorescent multiwall spectrophotometer (Biotek reader). Very less (<20% at 10 μg/mL) to no inhibition potential was observed towards enzymes CYP3A4, CYP2C9, CYP2D6, CYP1A2 and CYP2C19.

CYP1A2 = molecular target: T2, CYP1A2 (Homo sapiens, UniProt P05177); assay: in vitro; assay type: in vitro ADME
T2 construct: purchased
T2 sequence (P05177 whole entry): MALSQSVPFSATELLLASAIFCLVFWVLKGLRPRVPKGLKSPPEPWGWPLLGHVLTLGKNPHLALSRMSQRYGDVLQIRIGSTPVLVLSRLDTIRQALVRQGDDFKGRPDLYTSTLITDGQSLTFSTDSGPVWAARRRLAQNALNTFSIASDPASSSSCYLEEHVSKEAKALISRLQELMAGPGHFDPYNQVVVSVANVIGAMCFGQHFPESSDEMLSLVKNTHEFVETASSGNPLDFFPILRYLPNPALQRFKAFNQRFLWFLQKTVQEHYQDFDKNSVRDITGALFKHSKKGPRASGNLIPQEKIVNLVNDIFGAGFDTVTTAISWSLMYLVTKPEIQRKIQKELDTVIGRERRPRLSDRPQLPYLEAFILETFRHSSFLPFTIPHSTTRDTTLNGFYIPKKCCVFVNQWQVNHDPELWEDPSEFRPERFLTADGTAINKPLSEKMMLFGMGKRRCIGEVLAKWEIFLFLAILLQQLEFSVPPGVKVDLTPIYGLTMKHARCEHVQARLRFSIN
Protocol: as §1, §2

CYP2C19 = molecular target: T3, CYP2C19 (Homo sapiens, UniProt P33261); assay: in vitro; assay type: in vitro ADME
T3 construct: purchased
T3 sequence (P33261 whole entry): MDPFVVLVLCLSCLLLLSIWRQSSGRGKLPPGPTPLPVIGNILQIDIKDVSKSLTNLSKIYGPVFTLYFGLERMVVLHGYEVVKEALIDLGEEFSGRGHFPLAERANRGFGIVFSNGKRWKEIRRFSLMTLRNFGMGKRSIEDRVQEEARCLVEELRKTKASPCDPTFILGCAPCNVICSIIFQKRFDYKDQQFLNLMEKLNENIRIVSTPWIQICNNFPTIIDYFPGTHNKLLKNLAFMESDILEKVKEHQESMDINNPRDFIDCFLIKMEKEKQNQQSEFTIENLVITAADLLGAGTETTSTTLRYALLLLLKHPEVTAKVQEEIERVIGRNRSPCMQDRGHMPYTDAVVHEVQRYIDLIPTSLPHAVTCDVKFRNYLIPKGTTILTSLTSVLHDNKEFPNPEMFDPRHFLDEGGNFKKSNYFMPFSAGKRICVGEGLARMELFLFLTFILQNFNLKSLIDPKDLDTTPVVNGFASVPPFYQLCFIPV
Protocol: as §1, §2

CYP2C9 = molecular target: T4, CYP2C9 (Homo sapiens, UniProt P11712); assay: in vitro; assay type: in vitro ADME
T4 construct: purchased
T4 sequence (P11712 whole entry): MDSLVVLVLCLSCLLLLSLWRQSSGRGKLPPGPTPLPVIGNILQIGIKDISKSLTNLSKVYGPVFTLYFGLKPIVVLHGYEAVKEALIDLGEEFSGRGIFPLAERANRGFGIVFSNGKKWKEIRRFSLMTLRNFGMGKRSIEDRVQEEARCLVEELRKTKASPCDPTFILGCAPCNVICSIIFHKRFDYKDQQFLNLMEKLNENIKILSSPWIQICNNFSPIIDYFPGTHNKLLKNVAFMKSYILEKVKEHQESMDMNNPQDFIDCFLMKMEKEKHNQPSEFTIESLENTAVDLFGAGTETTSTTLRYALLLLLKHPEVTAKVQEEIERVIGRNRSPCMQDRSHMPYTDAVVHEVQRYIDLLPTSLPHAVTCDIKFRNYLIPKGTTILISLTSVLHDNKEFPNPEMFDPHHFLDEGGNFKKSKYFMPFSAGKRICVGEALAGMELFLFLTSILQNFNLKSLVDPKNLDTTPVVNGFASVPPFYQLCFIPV
Protocol: as §1, §2

CYP2D6 = molecular target: T5, CYP2D6 (Homo sapiens, UniProt P10635); assay: in vitro; assay type: in vitro ADME
T5 construct: purchased
T5 sequence (P10635 whole entry): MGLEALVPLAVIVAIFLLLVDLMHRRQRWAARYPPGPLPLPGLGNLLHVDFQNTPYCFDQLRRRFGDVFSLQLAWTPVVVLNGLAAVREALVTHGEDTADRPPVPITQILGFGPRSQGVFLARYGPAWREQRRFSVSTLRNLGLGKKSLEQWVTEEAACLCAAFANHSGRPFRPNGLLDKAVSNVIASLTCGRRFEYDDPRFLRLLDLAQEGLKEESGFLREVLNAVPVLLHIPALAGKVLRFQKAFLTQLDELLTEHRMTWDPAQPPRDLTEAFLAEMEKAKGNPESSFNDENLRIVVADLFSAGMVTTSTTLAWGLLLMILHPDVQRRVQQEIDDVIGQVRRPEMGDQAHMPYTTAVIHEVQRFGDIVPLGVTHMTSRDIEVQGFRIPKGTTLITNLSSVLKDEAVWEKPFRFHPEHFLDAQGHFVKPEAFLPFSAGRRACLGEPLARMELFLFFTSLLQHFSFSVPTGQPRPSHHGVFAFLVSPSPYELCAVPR
Protocol: as §1, §2

## H-FAKKFAKKFK-OH [IS217, H-Phe-Ala-Lys-Lys-Phe-Ala-Lys-Lys-Phe-Lys-OH]
[1]; 100 μg/ml
  increase in necrotic cells: 3.6 fold
[1]; 1000 μg/ml
  increase in late apoptotic cells: 1.7 fold
[1]; 2000 μg/ml
  increase in late apoptotic cells: 3.4 fold
  increase in necrotic cells: 1.4 fold
[1]; 5000 μg/ml
  increase in late apoptotic cells: 5.6 fold
  increase in necrotic cells: 3.1 fold
[1]; HaCaT, 100-5000 μg/ml
  increase in early apoptotic cells: no increase
[2]; 5 ± 3° C., 1 M
  API calculated on the anhydrous basis (OAB): 99.36%
  Related substances (By HPLC), Any Max. Impurity: 0.52%
  Related substances (By HPLC), Total Impurity: 0.63%
  Solubility (Soluble in water): Complies
  Water Content (By Karl Fischer-Titrator): 4.61% w/w
[2]; 5 ± 3° C., 1st month
  Appearance, change: No change
  Assessment of container closure system, change: No change
  Clarity of solution, change: No change
  Color of Solution, change: No change
  Color, change: No change
  Odor, change: No change
[2]; 5 ± 3° C., 2 M
  API calculated on the anhydrous basis (OAB): 99.25%
  Related substances (By HPLC), Any Max. Impurity: 0.53%
  Related substances (By HPLC), Total Impurity: 0.76%
  Solubility (Soluble in water): Complies
  Water Content (By Karl Fischer-Titrator): 4.55% w/w
[2]; 5 ± 3° C., 2nd month
  Appearance, change: No change
  Assessment of container closure system, change: No change
  Clarity of solution, change: No change
  Color of Solution, change: No change
  Color, change: No change
  Odor, change: No change
[2]; 5 ± 3° C., 3 M
  API calculated on the anhydrous basis (OAB): 99.06%
  Related substances (By HPLC), Any Max. Impurity: 0.59%
  Related substances (By HPLC), Total Impurity: 0.94%
  Solubility (Soluble in water): Complies
  Water Content (By Karl Fischer-Titrator): 4.60% w/w
[2]; 5 ± 3° C., 3rd month
  Appearance, change: No change
  Assessment of container closure system, change: No change
  Clarity of solution, change: No change
  Color of Solution, change: No change
  Color, change: No change
  Odor, change: No change
[2]; 5 ± 3° C., 6 M
  API calculated on the anhydrous basis (OAB): 99.22%
  Related substances (By HPLC), Any Max. Impurity: 0.43%
  Related substances (By HPLC), Total Impurity: 0.78%
  Solubility (Soluble in water): Complies
  Water Content (By Karl Fischer-Titrator): 4.62% w/w
[2]; 5 ± 3° C., 6th month
  Appearance, change: No change
  Assessment of container closure system, change: No change
  Clarity of solution, change: No change
  Color of Solution, change: No change
  Color, change: No change
  Odor, change: No change
[2]; 5 ± 3° C., Initial
  API calculated on the anhydrous basis (OAB): 99.28%
  Related substances (By HPLC), Any Max. Impurity: 0.60%
  Related substances (By HPLC), Total Impurity: 0.72%
  Remark: Complies
  Solubility (Soluble in water): Complies
  Water Content (By Karl Fischer-Titrator): 4.66% w/w
[2]; 6 months at accelerated condition 5 ± 3° C.
  stability of IS217 API: stable
[2]; refrigerator (5 ± 3° C.) conditions for 24 months, concluded from Tables 13 to 16
  stability of drug substance: stable
HaCaT cells; 500 μg/ml
  % increase in TUNEL-Positive cell population w.r.t. control (untreated cells): −25.0%
HaCaT cells; 1000 μg/ml
  % increase in TUNEL-Positive cell population w.r.t. control (untreated cells): −20.4%
HaCaT cells; 2000 μg/ml
  % increase in TUNEL-Positive cell population w.r.t. control (untreated cells): −25.4%
HaCaT cells; 5000 μg/ml
  % increase in TUNEL-Positive cell population w.r.t. control (untreated cells): −40.7%
HaCaT cells; tested concentration range 100-5000 μg/ml, vs untreated
  increase in apoptotic cells (TUNEL positive population): No increase
CYP3A4
  inhibition at 10 μg/mL: < 20%
CYP1A2
  inhibition at 10 μg/mL: < 20%
  inhibition potential towards CYP1A2 as compared to others: slightly higher potential
CYP2C19
  inhibition at 10 μg/mL: < 20%
CYP2C9
  inhibition at 10 μg/mL: < 20%
CYP2D6
  inhibition at 10 μg/mL: < 20%
